This note sets out measurements from PMC4710522, “A Novel Triazolopyridine-Based Spleen Tyrosine Kinase Inhibitor That Arrests Joint Inflammation” (PLoS ONE, 2016).

For experiment [1], the system named is FcγR-induced TNFα production in primary human macrophage. Briefly: primary human macrophage assay, anti-IgG stimulated TNF secretion. Format: cell-based. On the procedure:
Mobilized CD14-positive monocytes were plated in 96-well flat bottom plates in RPMI media supplemented with 100 ng/ml GM-CSF for 5 days. The plates were preincubated with CC-509 at indicated concentrations for 30 minutes. Biotinylated anti-IgG and streptavidin at 10 μg/ml final concentrations were thoroughly mixed, added to appropriate wells on the cell plate, and plate placed back in tissue culture incubator 8 hours. Following incubation, supernatants were collected and processed for TNFα Mesoscale single-plex cytokine assay as described by manufacturer (Mesoscale, Gaithersberg, MD). Briefly, the plates were incubated with sample or calibrator for 2 hours on an orbital shaker at room temperature. The detection antibody was added to all wells, the plate incubated for 2 hours at room temperature on an orbital shaker, and washed three times. Diluted Mesoscale detection solution was added to all wells and the plates were read on the Sector Imager instrument (Mesoscale, Gaithersberg, MD) plate reader.
For the TEL-Syk assay, the intensity values for the 700 and 800 channel were exported as text files in ActivityBase (IDBS, Guildford, UK) to derive the ratios that reflect kinase activity. For LAD2 experiments, enzyme activity values were exported as text files into ActivityBase to calculate “percent release” according to the formula: 100* supernatant OD405/ (supernatant OD405 + (pellet OD405*pellet dilution factor)). For the basophil and B-cells assays, flow cytometry data was exported from the FACS Array and processed using FloJo software package (TreeStar, Inc., Ashland, Oregon). For the JAK2 HEL and Ramos NFAT β-lactamase assays, the fluorescence values obtained at 460 nm and 530 nm were exported into ActivityBase to calculate response ratios. […] Evans blue dye extravasation was expressed as mean ± SEM and % inhibition for the test article groups was normalized to the cromolyn positive control. […] The mean data from each group was plotted and either the AUC(day 11–18) or % inhibition on day 18 was calculated. Data is expressed as mean ± SEM of each group with n = 6–12. […]

For another experiment, the target named is T1, MAP3K8_h (Homo sapiens, UniProt P41279).
T1 construct: purchased Life Technologies (Invitrogen) SelectScreen, Z'-LYTE / Adapta
Briefly: SelectScreen kinase assay. In kind it is biochemical. The following applies: 100 µM ATP. As to the method: (§1) Syk kinase mode of inhibition studies, including parameters described in Fig 1, were conducted on the LC3000 platform by Caliper Life Sciences (Hopkinton, MA) according to standard protocols developed by the supplier. […] Non-kinase enzyme assays and GPCR, ion channel, and transporter binding assays were run by CEREP (France). Non-GLP manual patch clamp hERG assays were run by ChanTest (Cleveland, Ohio). Vivid® Assay kits (Life Technologies) were used to measure the cytochrome P450 inhibition of the compound against CYP3A, CYP2C9, CYP2C19, CYP2D6, and CYP1A2, as described.
(§2) Kinase activity was measured using either the Z’-Lyte® or the Adapta® protocols as part of the SelectScreen™ profiling service offered at Life Technologies (Grand Island, NY). For the single point measurements (Part A), CC-509 was kept constant at 3 µM while ATP concentrations [ATP] used were at the KM for ATP (KM ATP) for that specific enyzme, at 10 or 100 µM ATP (10 ATP or 100 ATP, respectively), as indicated. Values expressed as percent control (% control) relative to DMSO-only wells (uninhibited, 100%).
(§3) Kinase activity was measured using either the Z’-Lyte® or the Adapta® protocols as part of the SelectScreen™ profiling service offered at Life Technologies (Grand Island, NY). […] Values expressed as percent control (% control) relative to DMSO-only wells (uninhibited, 100%).

The next experiment deals with T2, GRK3_h (Homo sapiens, UniProt P35626).
T2 construct: purchased Life Technologies (Invitrogen) SelectScreen, Z'-LYTE / Adapta
Description: SelectScreen kinase assay. In kind it is biochemical. The following applies: KM ATP. As to the method:
as §1, §2, §3

A further experiment deals with T3, Arg_m (Mus musculus, UniProt Q4JIM5).
T3 construct: purchased Life Technologies (Invitrogen) SelectScreen, Z'-LYTE / Adapta
Briefly: SelectScreen kinase assay. Format: biochemical. The following applies: KM ATP. On the procedure:
as §1, §2, §3

A further experiment concerns the target T4, TSSK2_h (Homo sapiens, UniProt Q96PF2).
T4 construct: purchased Life Technologies (Invitrogen) SelectScreen, Z'-LYTE / Adapta
Briefly: SelectScreen kinase assay. In kind it is biochemical. The following applies: KM ATP. On the procedure: as §1, §2, §3

The target of a further experiment is T5, Blk_m (Mus musculus, UniProt P16277).
T5 construct: purchased Life Technologies (Invitrogen) SelectScreen, Z'-LYTE / Adapta
Description: SelectScreen kinase assay. In kind it is biochemical. The following applies: KM ATP. On the procedure: as §1, §2, §3

The next experiment concerns the target T6, GSG2 _h (Homo sapiens, UniProt Q8TF76).
T6 construct: purchased Life Technologies (Invitrogen) SelectScreen, Z'-LYTE / Adapta
Description: SelectScreen kinase assay. In kind it is biochemical. The following applies: KM ATP. On the procedure:
as §1, §2, §3

For a further experiment, the target named is T7, PKC-alpha_h (Homo sapiens, UniProt P17252).
T7 construct: purchased Life Technologies (Invitrogen) SelectScreen, Z'-LYTE / Adapta
Description: SelectScreen kinase assay. In kind it is biochemical. The following applies: KM ATP. As to the method: as §1, §2, §3

For a further experiment, the target named is T8, SGK2_h (Homo sapiens, UniProt Q9HBY8).
T8 construct: purchased Life Technologies (Invitrogen) SelectScreen, Z'-LYTE / Adapta
Briefly: SelectScreen kinase assay. Format: biochemical. The following applies: KM ATP. On the procedure:
as §1, §2, §3

The next experiment has as its target T9, CDK1_cyclinB_h (Homo sapiens, UniProt P06493).
T9 construct: purchased Life Technologies (Invitrogen) SelectScreen, Z'-LYTE / Adapta
Description: SelectScreen kinase assay. Format: biochemical. The following applies: KM ATP. On the procedure: as §1, §2, §3

A further experiment addresses T10, PKC-zeta_h (Homo sapiens, UniProt Q05513).
T10 construct: purchased Life Technologies (Invitrogen) SelectScreen, Z'-LYTE / Adapta
Description: SelectScreen kinase assay. Format: biochemical. The following applies: KM ATP. As to the method:
as §1, §2, §3

The next experiment addresses T11, DYRK4_h (Homo sapiens, UniProt Q9NR20).
T11 construct: purchased Life Technologies (Invitrogen) SelectScreen, Z'-LYTE / Adapta
Description: SelectScreen kinase assay. Format: biochemical. The following applies: KM ATP. On the procedure:
as §1, §2, §3

Another experiment concerns the target T12, MAPKAP-K3_h (Homo sapiens, UniProt Q16644).
T12 construct: purchased Life Technologies (Invitrogen) SelectScreen, Z'-LYTE / Adapta
Briefly: SelectScreen kinase assay. In kind it is biochemical. The following applies: KM ATP. As to the method:
as §1, §2, §3

The next experiment has as its target T13, GRK6_h (Homo sapiens, UniProt P43250).
T13 construct: purchased Life Technologies (Invitrogen) SelectScreen, Z'-LYTE / Adapta
Briefly: SelectScreen kinase assay. Format: biochemical. The following applies: KM ATP. On the procedure:
as §1, §2, §3

For the next experiment, the target named is T14, PKC-gamma_h (Homo sapiens, UniProt P05129).
T14 construct: purchased Life Technologies (Invitrogen) SelectScreen, Z'-LYTE / Adapta
Briefly: SelectScreen kinase assay. The following applies: KM ATP. In kind it is biochemical. As to the method: as §1, §2, §3

The next experiment addresses T15, GRK2_h (Homo sapiens, UniProt P25098).
T15 construct: purchased Life Technologies (Invitrogen) SelectScreen, Z'-LYTE / Adapta
Description: SelectScreen kinase assay. In kind it is biochemical. The following applies: KM ATP. On the procedure: as §1, §2, §3

The structures appear in SMILES notation. Several values for one entry are separate records, joined by “and”; a condition that tells them apart may be missing. Equal entries are not always repeated. Where two headings read alike, the source gives them in different places.

T10 sequence (Q05513 whole entry): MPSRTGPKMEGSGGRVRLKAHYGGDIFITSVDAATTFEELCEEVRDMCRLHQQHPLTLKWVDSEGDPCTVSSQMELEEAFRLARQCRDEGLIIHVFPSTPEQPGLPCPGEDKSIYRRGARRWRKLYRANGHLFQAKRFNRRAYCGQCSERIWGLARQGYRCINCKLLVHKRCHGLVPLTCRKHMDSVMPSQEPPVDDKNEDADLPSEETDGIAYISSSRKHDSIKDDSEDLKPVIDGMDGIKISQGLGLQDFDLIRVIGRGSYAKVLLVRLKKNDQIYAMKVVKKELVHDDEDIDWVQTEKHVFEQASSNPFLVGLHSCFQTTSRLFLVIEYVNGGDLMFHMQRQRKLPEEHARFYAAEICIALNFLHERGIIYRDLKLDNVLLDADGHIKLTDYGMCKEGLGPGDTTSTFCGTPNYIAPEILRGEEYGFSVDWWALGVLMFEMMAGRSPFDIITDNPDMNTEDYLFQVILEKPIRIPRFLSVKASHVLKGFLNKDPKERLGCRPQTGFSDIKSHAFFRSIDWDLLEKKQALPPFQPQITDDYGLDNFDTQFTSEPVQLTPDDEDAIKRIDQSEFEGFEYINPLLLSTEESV
T12 sequence (Q16644 whole entry): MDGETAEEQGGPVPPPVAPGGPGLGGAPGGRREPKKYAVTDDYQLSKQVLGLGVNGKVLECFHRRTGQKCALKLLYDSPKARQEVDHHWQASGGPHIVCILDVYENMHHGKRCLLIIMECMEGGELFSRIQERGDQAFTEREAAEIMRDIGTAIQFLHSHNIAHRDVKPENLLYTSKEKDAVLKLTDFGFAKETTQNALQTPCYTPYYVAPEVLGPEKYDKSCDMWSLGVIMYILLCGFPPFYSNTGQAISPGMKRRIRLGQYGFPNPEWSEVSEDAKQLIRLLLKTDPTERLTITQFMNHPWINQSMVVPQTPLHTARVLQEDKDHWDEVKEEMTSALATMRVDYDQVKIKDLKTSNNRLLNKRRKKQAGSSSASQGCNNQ
T11 sequence (Q9NR20 whole entry): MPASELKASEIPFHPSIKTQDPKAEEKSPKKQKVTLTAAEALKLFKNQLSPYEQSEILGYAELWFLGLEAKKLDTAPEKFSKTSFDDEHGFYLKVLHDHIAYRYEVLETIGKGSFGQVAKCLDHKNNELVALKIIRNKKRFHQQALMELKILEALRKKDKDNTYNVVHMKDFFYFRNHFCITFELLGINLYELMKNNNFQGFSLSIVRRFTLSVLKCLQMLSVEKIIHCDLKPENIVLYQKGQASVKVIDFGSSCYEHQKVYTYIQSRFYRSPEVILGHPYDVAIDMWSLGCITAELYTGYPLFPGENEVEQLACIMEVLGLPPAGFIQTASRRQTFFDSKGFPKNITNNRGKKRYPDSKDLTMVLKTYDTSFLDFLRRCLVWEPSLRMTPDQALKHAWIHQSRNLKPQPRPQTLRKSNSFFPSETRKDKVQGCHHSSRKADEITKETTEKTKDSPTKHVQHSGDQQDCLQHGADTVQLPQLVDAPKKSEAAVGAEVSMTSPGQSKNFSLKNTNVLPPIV
T8 sequence (Q9HBY8 whole entry): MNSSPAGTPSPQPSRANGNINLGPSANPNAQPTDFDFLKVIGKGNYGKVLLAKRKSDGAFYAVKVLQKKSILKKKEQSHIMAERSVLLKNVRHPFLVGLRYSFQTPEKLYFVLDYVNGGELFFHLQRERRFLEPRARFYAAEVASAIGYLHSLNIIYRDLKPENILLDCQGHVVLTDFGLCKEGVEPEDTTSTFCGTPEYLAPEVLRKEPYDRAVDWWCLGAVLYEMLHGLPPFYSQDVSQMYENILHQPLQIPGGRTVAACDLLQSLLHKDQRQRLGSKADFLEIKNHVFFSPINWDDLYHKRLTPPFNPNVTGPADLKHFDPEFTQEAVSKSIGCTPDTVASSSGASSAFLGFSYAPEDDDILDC
T1 sequence (P41279 whole entry): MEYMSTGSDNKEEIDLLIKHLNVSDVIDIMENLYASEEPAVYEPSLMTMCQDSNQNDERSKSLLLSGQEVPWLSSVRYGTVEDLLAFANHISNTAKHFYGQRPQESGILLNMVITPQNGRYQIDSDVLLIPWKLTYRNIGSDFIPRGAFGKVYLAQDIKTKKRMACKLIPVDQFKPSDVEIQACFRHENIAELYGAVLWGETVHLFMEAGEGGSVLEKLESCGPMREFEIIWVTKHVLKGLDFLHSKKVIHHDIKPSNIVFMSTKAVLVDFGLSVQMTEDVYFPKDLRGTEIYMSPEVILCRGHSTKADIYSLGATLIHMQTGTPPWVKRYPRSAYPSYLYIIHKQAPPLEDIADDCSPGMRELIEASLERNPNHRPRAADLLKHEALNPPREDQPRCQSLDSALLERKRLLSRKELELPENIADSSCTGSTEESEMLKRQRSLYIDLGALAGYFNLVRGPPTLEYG
T13 sequence (P43250 whole entry): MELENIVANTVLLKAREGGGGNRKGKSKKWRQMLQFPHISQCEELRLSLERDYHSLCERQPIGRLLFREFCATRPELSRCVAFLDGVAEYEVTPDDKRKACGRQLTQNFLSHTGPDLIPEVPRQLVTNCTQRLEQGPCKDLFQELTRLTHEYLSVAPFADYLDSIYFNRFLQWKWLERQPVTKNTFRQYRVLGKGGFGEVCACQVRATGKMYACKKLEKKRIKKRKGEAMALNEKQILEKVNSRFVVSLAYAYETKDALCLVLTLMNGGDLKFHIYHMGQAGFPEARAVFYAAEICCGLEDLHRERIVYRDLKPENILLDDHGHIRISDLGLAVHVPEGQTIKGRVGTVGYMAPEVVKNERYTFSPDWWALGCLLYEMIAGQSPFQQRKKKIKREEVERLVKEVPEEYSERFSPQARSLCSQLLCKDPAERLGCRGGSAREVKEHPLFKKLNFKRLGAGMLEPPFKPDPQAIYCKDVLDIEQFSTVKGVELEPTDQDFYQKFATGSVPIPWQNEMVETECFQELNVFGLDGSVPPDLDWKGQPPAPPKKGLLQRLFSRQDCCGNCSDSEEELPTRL
T4 sequence (Q96PF2 whole entry): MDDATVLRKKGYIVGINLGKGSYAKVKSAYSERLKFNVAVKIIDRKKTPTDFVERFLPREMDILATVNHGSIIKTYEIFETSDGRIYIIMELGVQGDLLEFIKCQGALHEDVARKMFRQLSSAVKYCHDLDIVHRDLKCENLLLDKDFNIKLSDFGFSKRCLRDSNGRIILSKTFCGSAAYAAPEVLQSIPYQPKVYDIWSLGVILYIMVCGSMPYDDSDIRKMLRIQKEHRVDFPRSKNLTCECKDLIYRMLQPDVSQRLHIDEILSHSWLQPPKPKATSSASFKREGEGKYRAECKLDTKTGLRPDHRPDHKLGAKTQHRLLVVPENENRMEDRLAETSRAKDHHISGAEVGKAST

One may read the IC50 as the concentration that gives 50% inhibition. As for `c1cc(CC2CCOCC2)n2nc(Nc3ccc4c(NC5CCOCC5)n[nH]c4c3)nc2c1` [CC-509, [3-(2H-3,4,5,6-tetrahydropyran-4-ylamino)(1H-indazol-6-yl)][5-(2H-3,4,5,6-tetrahydropyran-4-ylmethyl)(2H-1,2,4-triazolo[1,5-a]pyridin-2-yl)]amine], the IC50 in experiment [1] (Homo sapiens, Macrophage, mean ± SD, minimum n = 3, read-out: IC50, TNFα production induced by FcγR cross-linking) came out at 170 ± 120 nM; in experiment [1] (Homo sapiens, Macrophage FcγR, curve shown in figure, read-out: IC50 printed in Fig 3A panel), 110 nM. The remaining activity at 3 µM amounted to 79% on MAP3K8_h (read-out: % control); 98% on GRK3_h (read-out: % control); 31% on Arg_m (read-out: % control); 93% at TSSK2_h (read-out: % control); 63% at Blk_m (read-out: % control); 100% on GSG2 _h (read-out: % control). For the same compound, the remaining activity at 3 µM was found to be 71% at PKC-alpha_h (read-out: % control); 89% at SGK2_h (read-out: % control); 82% at CDK1_cyclinB_h (read-out: % control); 86% on PKC-zeta_h (read-out: % control); 97% at DYRK4_h (read-out: % control); 88% at MAPKAP-K3_h (read-out: % control). For the same compound, the remaining activity at 3 µM is 92% at GRK6_h (read-out: % control), 45% on PKC-gamma_h (read-out: % control) and 82% on GRK2_h (read-out: % control).

Take `COc1cc(Nc2ncc(F)c(Nc3ccc4c(n3)NC(=O)C(C)(C)O4)n2)cc(OC)c1OC` [R406, reference compound]: in experiment [1] (mean ± SD, minimum n = 3, read-out: IC50, TNFα production induced by FcγR cross-linking), the IC50 was 290 ± 160 nM. The “% control” value is recorded as 52% at MAP3K8_h (3 µM); 103% at GRK3_h (3 µM); 34% at Arg_m (3 µM); 96% on TSSK2_h (3 µM); 11% at Blk_m (3 µM); 64% on GSG2 _h (3 µM). Also, the “% control” value on PKC-alpha_h (3 µM) was 42%; at SGK2_h (3 µM), 92%; on CDK1_cyclinB_h (3 µM) it was 68%; on PKC-zeta_h (3 µM), 100% and 101%; at DYRK4_h (3 µM), 69%; on MAPKAP-K3_h (3 µM), 96%. In addition, the results for the “% control” value on GRK6_h (3 µM), on PKC-gamma_h (3 µM) and at GRK2_h (3 µM) were 100%, 16% and 99%, respectively.
